For orientation: IC50 means the point on the concentration scale where inhibition reaches its midpoint.

These results are taken from patent US7960408B2, “Quinolinyl and benzothiazolyl modulators” (Amgen Inc., priority 2000, dated 2011).

The target in this experiment is T1, PPARγ (Homo sapiens, UniProt P37231).
T1 construct: made in house
T1 sequence (P37231 1-505): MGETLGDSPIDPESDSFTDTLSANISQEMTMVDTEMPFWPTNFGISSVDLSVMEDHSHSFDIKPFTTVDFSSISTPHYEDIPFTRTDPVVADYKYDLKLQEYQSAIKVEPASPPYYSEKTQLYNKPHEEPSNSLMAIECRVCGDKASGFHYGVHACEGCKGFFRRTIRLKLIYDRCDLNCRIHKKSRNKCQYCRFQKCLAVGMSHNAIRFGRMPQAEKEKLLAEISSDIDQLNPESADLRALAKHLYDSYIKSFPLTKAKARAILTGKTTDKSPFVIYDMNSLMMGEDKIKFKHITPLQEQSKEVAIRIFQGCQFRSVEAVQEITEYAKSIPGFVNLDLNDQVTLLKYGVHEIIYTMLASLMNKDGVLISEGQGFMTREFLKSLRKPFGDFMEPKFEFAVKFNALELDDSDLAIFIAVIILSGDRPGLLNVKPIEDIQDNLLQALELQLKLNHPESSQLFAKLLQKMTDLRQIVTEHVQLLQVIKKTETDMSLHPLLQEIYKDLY
Description: PPARγ ligand binding assay utilizing [3H]-BRL 49653 as the radioligand. As to conditions: concentration required to reduce by 50% the specific binding of [3H]-BRL 49653. An excerpt: The compounds of the present invention can be evaluated for modulation of the PPARγ receptor using assays such as those described in Jiang, et al., Nature 391:82-86 (1998), Ricote, et al., Nature 391:79-82 (1998) and Lehmann, et al., J. Biol. Chem. 270(12): 12953-12956 (1995). Alternatively, the compounds can be evaluated for their ability to displace radiolabeled BRL 49653 from a PPARγ-GST fusion protein as follows:
PPARγ-GST fusion protein (prepared according to standard procedures), [^3H]—BRL 49653 having 50 Ci/mmol specific activity, Polyfiltronics Unifilter 350 filtration plate and glutathione-Sepharose® beads (from Pharmacia: washed twice with 10× binding buffer in which BSA and DTI can be left out).
Binding buffer (10 mM Tris-HCl, pH 8.0, 50 mM KCI, 10 mM DTT, 0.02% BSA and 0.01% NP-40) is added in 80-μL amounts to the wells of the filtration plate. The test compound is then added in 10 μL of DMSO. The PPARγ-GST fusion protein and radiolabeled BRL compound are premixed in binding buffer containing 10 mM DTT and added in 10-μL amounts to the wells of the plate to provide final concentrations of 1 μg/well of PPARγ-GST fusion protein and 10 nM [^3H]—BRL 49653 compound. The plate is incubated for 15 min. Glutathione-agarose bead is added in 50 μL of binding buffer, and the plate is vigorously shaken for one hour. The plate is washed four times with 200 μL/well of binding buffer (without BSA and DTT). The bottom of the plate is sealed and 200 μL/well of scintillation cocktail is added. The top of the plate is then sealed and the radioactivity is determined.
IC50 values are defined as the concentration of test compounds required to reduce by 50% the specific binding of [^3H]—BRL 49653 and are represented by (+) <30 μM; (++) <10 μM; (+++) <1 μM.
Consider `CS(=O)(=O)c1ccc2nc(Oc3ccc(NS(=O)(=O)c4ccc(C(F)(F)F)cc4Cl)cc3Cl)sc2c1` [Compound 445, 2-Chloro-N-[3-chloro-4-(6-methanesulfonyl-benzothiazol-2-yloxy)-phenyl]-4-trifluoromethyl-benzenesulfonamide], for which the IC50 was < 1 µM.

With `COc1ccc2nc(Oc3cc(Cl)cc(NS(=O)(=O)c4ccc(C(F)(F)F)cc4Cl)c3)sc2c1` [Compound 307, 2-Chloro-N-[3-chloro-5-(6-methoxy-benzothiazol-2-yloxy)-phenyl]-4-trifluoromethyl-benzenesulfonamide], the IC50 was 1 to 10 µM.

As to `O=S(=O)(Nc1cc(Cl)cc(Oc2nc3cc(Cl)ccc3s2)c1)c1ccc(C(F)(F)F)cc1Cl` [Compound 283, 2-Chloro-N-[3-chloro-5-(5-chloro-benzothiazol-2-yloxy)-phenyl]-4-trifluoromethyl-benzenesulfonamide], the IC50 lay in the range of 1 to 10 µM.

As to `Cc1cc(S(=O)(=O)Nc2cc(Cl)cc(Oc3nc4cc(Cl)ccc4s3)c2)c(Cl)cc1Cl` [Compound 285, 2,4-Dichloro-N-[3-chloro-5-(5-chloro-benzothiazol-2-yloxy)-phenyl]-5-methyl-benzenesulfonamide], the IC50 is < 1 µM.

Regarding `Cc1cc(S(=O)(=O)Nc2cc(Oc3nc4cc(Cl)ccc4s3)cc(Oc3nc4cc(Cl)ccc4s3)c2)c(Cl)cc1Cl` [Compound 324, N-[3,5-Bis-(5-chloro-benzothiazol-2-yloxy)-phenyl]-2,4-dichloro-5-methyl-benzenesulfonamide], the IC50 is < 1 µM.

As for `CCOC(=O)c1ccc2nc(Oc3cc(Cl)cc(NS(=O)(=O)c4ccc(C(F)(F)F)cc4Cl)c3)sc2c1` [Compound 311, 2-[3-Chloro-5-(2-chloro-4-trifluoromethyl-benzenesulfonylamino)-phenoxy]-benzothiazole-6-carboxylic acid ethyl ester], the IC50 was < 1 µM.

As for `COc1cccc2sc(Oc3cc(Cl)cc(NS(=O)(=O)c4cc(C)c(Cl)cc4Cl)c3)nc12` [Compound 298, 2,4-Dichloro-N-[3-chloro-5-(4-methoxy-benzothiazol-2-yloxy)-phenyl]-5-methyl-benzenesulfonamide], the IC50 is < 1 µM.

Regarding `O=S(=O)(Nc1cc(Cl)c(Cc2ccc3ccccc3n2)c(Cl)c1)c1ccc(C(F)(F)F)cc1Cl` [Compound 224, 2-Chloro-N-(3,5-dichloro-4-quinolin-2-ylmethyl-phenyl)-4-trifluoromethyl-benzenesulfonamide], the IC50 is < 1 µM.

The molecule `O=S(=O)(Nc1ccc(Oc2nc3c(Cl)cccc3s2)c(Cl)c1)c1ccc(C(F)(F)F)cc1Cl` [Compound 503, 2-Chloro-N-[3-chloro-4-(4-chloro-benzothiazol-2-oxy)-phenyl]-4-trifluoromethylbenzenesulfonamide] came in with an IC50 of 10 to 30 µM.

On to `Cc1cc(S(=O)(=O)Nc2cc(Cl)cc(Oc3nc4c(Cl)cccc4s3)c2)c(Cl)cc1Cl` [Compound 292, 2,4-Dichloro-N-[3-chloro-5-(4-chloro-benzothiazol-2-yloxy)-phenyl]-5-methyl-benzenesulfonamide], for which the IC50 was in the range of 1 to 10 µM.

For the molecule `CS(=O)(=O)c1ccc2nc(Oc3c(Cl)cc(NS(=O)(=O)c4ccc(C(F)(F)F)cc4Cl)cc3Cl)sc2c1` [Compound 441, 2-Chloro-N-[3,5-dichloro-4-(6-methanesulfonyl-benzothiazol-2-yloxy)-phenyl]-4-trifluoromethyl-benzenesulfonamide], the IC50 is < 1 µM.

`Cc1cc(S(=O)(=O)Nc2cc(F)c(Oc3cnc4ccccc4c3)c(Cl)c2)c(Cl)cc1Cl` [Compound 50, N-[3-Chloro-5-fluoro-4-(quinolin-3-yloxy)phenyl]-2,4-dichloro-5-methyl-benzenesulfonamide]: the IC50 was < 1 µM.

The molecule `Cc1cccc2sc(Oc3cc(Cl)cc(NS(=O)(=O)c4ccc(Cl)cc4Cl)c3)nc12` [Compound 294, 2,4-Dichloro-N-[3-chloro-5-(4-methyl-benzothiazol-2-yloxy)-phenyl]-benzenesulfonamide] came in with an IC50 of 10 to 30 µM.

In the case of `O=S(=O)(Nc1cc(Cl)cc(Oc2nc3ccc(F)cc3s2)c1)c1ccc(Cl)cc1Cl` [Compound 305, 2,4-Dichloro-N-[3-chloro-5-(6-fluoro-benzothiazol-2-yloxy)-phenyl]-benzenesulfonamide], the half-maximal inhibitory concentration (IC50) was < 1 µM.

Regarding `O=S(=O)(Nc1cc(Cl)c(Cc2cnc3ccccc3c2)c(Cl)c1)c1ccc(C(F)(F)F)cc1Cl` [Compound 231, 2-Chloro-N-(3,5-dichloro-4-quinolin-3-ylmethyl-phenyl)-4-trifluoromethyl-benzenesulfonamide], the IC50 is < 1 µM.

As to `O=S(=O)(Nc1cc(Oc2nc3cc(Cl)ccc3s2)cc(Oc2nc3cc(Cl)ccc3s2)c1)c1ccc(Cl)cc1Cl` [Compound 323, N-[3,5-Bis-(5-chloro-benzothiazol-2-yloxy)-phenyl]-2,4-dichloro-benzenesulfonamide], the IC50 lay within 1 to 10 µM.

The molecule `Cc1cc(S(=O)(=O)Nc2cc(Cl)cc(Oc3nc4c(C)cccc4s3)c2)c(Cl)cc1Cl` [Compound 295, 2,4-Dichloro-N-[3-chloro-5-(4-methyl-benzothiazol-2-yloxy)-phenyl]-5-methyl-benzenesulfonamide] displayed an IC50 of 1 to 10 µM.

`O=S(=O)(Nc1cc(Cl)c(Oc2nc3ccc(Cl)cc3s2)c(Cl)c1)c1ccc(Br)cc1OC(F)(F)F` [Compound 433, 4-Bromo-N-[3,5-dichloro-4-(6-chloro-benzothiazol-2-yloxy)-phenyl]-2-trifluoromethoxy-benzenesulfonamide]: the IC50 is < 1 µM.

Consider `COC(=O)c1ccc2ncc(Oc3c(Cl)cc(NS(=O)(=O)c4ccc(Cl)cc4Cl)cc3Cl)cc2c1` [Compound 45, 3-[2,6-Dichloro-4-(2,4-dichloro-benzenesulfonylamino)-phenoxy]-quinoline-6-carboxylic acid methyl ester], for which the IC50 was < 1 µM.

Take `CS(=O)(=O)Nc1ccc2nc(Oc3c(Cl)cc(NS(=O)(=O)c4ccc(C(F)(F)F)cc4Cl)cc3Cl)sc2c1` [Compound 440, 2-Chloro-N-[3,5-dichloro-4-(6-methanesulfonylamino-benzothiazol-2-yloxy)-phenyl]-4-trifluoromethyl-benzenesulfonamide]: the IC50 was < 1 µM.

As to `O=S(=O)(Nc1cc(Cl)cc(Oc2nc3cc(Cl)ccc3s2)c1)c1ccc(Cl)cc1Cl` [Compound 284, 2,4-Dichloro-N-[3-chloro-5-(5-chloro-benzothiazol-2-yloxy)-phenyl]-benzenesulfonamide], the IC50 was < 1 µM.

As to `Cc1cccc2sc(Oc3c(Cl)cc(NS(=O)(=O)c4ccc(C(F)(F)F)cc4Cl)cc3Cl)nc12` [Compound 505, 2-Chloro-N-[3,5-dichloro-4-(4-methyl-benzothiazol-2-oxy)-phenyl]-4-trifluoromethylbenzenesulfonamide], the IC50 lay in the range of 10 to 30 µM.

With `CS(=O)(=O)c1ccc2sc(Oc3c(Cl)cc(NS(=O)(=O)c4ccc(C(F)(F)F)cc4Cl)cc3Cl)nc2c1` [Compound 458, 2-Chloro-N-[3,5-dichloro-4-(5-methanesulfonyl-benzothiazol-2-yloxy)-phenyl]-4-trifluoromethyl-benzenesulfonamide], the IC50 was < 1 µM.

Regarding `CCOC(=O)c1ccc2nc(Oc3cc(Cl)cc(NS(=O)(=O)c4ccc(C(F)(F)F)cc4Cl)c3)sc2c1` [Compound 310, 2-[3-Chloro-5-(2-chloro-4-trifluoromethyl-benzenesulfonylamino)-phenoxy]-benzothiazole-6-carboxylic acid ethyl ester], the IC50 is < 1 µM.

For the molecule `O=[N+]([O-])c1cc(C(F)(F)F)ccc1S(=O)(=O)Nc1cc(Cl)c(Oc2nc3ccc(Cl)cc3s2)c(Cl)c1` [Compound 435, N-[3,5-Dichloro-4-(6-chloro-benzothiazol-2-yloxy)-phenyl]-2-nitro-4-trifluoromethyl-benzenesulfonamide], the IC50 was < 1 µM.

On to `O=S(=O)(Nc1cc(Cl)c(Oc2nc3c(Cl)cccc3s2)c(Cl)c1)c1ccc(C(F)(F)F)cc1Cl` [Compound 424, 2-Chloro-N-[3,5-dichloro-4-(4-chloro-benzothiazol-2-yloxy)-phenyl]-4-trifluoromethyl-benzenesulfonamide], for which the IC50 fell in the range of 1 to 10 µM.
